From patent US10648968B2, “In vitro test system to evaluate xenobiotics as immune-modulators of drug transport and metabolism in human hepatocytes” (XenoTech, LLC, priority 2011, dated 2020)

Tests used:
[1] = in humans following LPS treatment; correlated with changes in TNF and IL-6; cited from earlier work
CYP1A2 = details: co-cultures of hepatocyte and Kupffer cells, three livers, treated daily for 72 hours; phenacetin O-dealkylation by LC/MS/MS
CYP3A4 = details: co-cultures of hepatocyte and Kupffer cells, three livers, treated daily for 72 hours; testosterone 6β-hydroxylation by LC/MS/MS

For lipopolysaccharides [LPS], the “antipyrine (AP) clearance” value [1] is listed as “changes”, the CYP1A2 activity (CYP1A2) is listed as “decrease” and the CYP3A4 activity (CYP3A4) is listed as “decrease”.
